{"source": "patent US20150004110A1", "about": "“NOVEL ANTI-AGING AND DEPIGMENTING COSMETIC COMPOSITIONS” (DIVERCHIM, priority 2011, published 2015)", "key": {"PPARγ (h)": {"molecular_target": "T1, PPARγ (h) (Homo sapiens, UniProt P37231)", "T1 construct": "Cerep (contract laboratory that ran the assay)", "T1 sequence (P37231 1-505)": "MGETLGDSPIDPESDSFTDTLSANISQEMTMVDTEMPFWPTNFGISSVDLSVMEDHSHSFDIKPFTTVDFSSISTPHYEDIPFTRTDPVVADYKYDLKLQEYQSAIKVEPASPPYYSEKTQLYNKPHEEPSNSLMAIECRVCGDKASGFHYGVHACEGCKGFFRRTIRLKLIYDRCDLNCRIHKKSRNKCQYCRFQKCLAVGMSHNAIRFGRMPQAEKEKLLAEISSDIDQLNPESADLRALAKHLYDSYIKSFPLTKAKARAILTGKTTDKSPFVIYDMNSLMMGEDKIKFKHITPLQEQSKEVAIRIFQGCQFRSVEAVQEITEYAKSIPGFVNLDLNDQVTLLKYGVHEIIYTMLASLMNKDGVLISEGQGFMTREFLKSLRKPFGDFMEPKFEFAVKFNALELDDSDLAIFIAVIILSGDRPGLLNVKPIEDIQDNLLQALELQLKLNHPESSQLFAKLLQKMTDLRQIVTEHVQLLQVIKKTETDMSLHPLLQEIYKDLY", "assay": "PPARγ antagonist effect, coactivator Alpha screen", "type": "biochemical", "description": "(§1) The agonist or antagonist activity of compound 1 on the PPAR receptors was tested by fluorescence techniques. • Material and Methods\n(§2) The results are expressed as: • percentage of control specific agonist response (measured specific response/control specific agonist response)×100) and • percentage inhibition of the control specific agonist response (100−((measured specific response)/control specific agonist response)×100)) obtained in the presence of compound 1.\n(§3) The EC50 values (concentration at which the maximum specific response is 50%) and the IC50 values (concentration at which the maximum control specific agonist response is inhibited by 50%) are determined by non-linear regression analysis of the concentration-response curves with a mean replicated value using adjustment of Hill's equation\n(§4) For the antagonists, the apparent dissociation constants (KB) were calculated using the modified Cheng-Prusoff equation"}, "[1]": {"tested_on": "HSPB1, heat shock protein beta-1", "assay": "RT-qPCR expression of HSPB1 in keratinocytes", "type": "cell-based, human", "conditions": "10 μM", "description": "The expression of the specific markers was evaluated by RT-qPCR (reverse transcription quantitative polymerase chain reaction) on messenger RNAs extracted from the cell lawns from each treatment. The transcriptomic profile contains 64 genes selected for their importance in keratinocyte differentiation. The PCR reactions (polymerase chain reactions) were carried out by quantitative PCR with the “Light Cycler” system (Roche Molecular System Inc.) according to the procedures recommended by the supplier. Normal human epidermal keratinocytes were incubated in the presence of compound 1 or a reference with calcium chloride. The expression of the specific markers was evaluated by RT-qPCR on the messenger RNAs extracted from the cell lawns from each treatment."}, "PPARα (h)": {"molecular_target": "T2, PPARα (h) (Homo sapiens, UniProt Q07869)", "T2 sequence (Q07869 1-468)": "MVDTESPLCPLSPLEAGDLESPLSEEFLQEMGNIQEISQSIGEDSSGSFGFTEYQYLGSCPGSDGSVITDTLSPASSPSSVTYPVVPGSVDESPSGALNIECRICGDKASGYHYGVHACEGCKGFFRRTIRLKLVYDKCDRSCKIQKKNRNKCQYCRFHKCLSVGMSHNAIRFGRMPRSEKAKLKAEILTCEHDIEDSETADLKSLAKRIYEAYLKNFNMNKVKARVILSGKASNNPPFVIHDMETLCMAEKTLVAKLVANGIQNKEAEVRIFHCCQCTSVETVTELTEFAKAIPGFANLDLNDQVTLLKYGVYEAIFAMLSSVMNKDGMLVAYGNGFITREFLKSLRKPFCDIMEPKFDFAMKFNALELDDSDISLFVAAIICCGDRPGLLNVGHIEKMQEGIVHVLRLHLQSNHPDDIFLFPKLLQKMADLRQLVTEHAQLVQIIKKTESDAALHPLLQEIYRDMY", "assay": "PPARα antagonist effect, coactivator Alpha screen", "type": "biochemical", "description": "as §1, §2, §3, §4"}, "[2]": {"tested_on": "B16 melanocytes stimulated with NDP-MSH", "assay": "Anti-melanogenesis activity: melanin synthesis in B16 melanocytes stimulated with NDP-MSH", "type": "cell-based", "description": "The depigmenting effect was evaluated on a line of type B16 melanocytes stimulated with NDP-MSH, (natural hormone stimulating melanogenesis; Melanocyte Stimulating Hormone, [Nle, DPhe]-α-MSH). Melanin synthesis was evaluated.\nThe anti-melanogenesis activity of the compounds in solution in DMSO was evaluated by measuring melanin synthesis in a model of B16 melanocytes stimulated with a stable derivative of α-MSH (natural melanogenesis stimulating hormone): NDP-MSH.\nThe melanocytes were seeded in a 96-well plate and were cultured for 24 h (37° C., 5% CO2, DMEM 1 g/L glucose without phenol red supplemented with glucose at 3 g/L, L-glutamine at 2 mM, penicillin at 50 U/mL, streptomycin at 50 μg/mL, foetal calf serum (FCS) at 10%). After incubation, the culture medium was then replaced with culture medium supplemented or not supplemented (unstimulated control) with a stable derivative of α-MSH and containing or not containing (controls) the test compounds or the reference (kojic acid at 25, 100, 400, 800 μg/mL). Each experiment was carried out with n=3, apart from the controls carried out with n=6, then the cells were incubated for 72 h. Wells without cells received in parallel the same quantities of medium supplemented or not supplemented with NDP-MSH and containing or not containing the test compounds or the reference in order to quantify the background noise associated with the presence of the compounds.\nAfter incubation for 72 hours, the total melanin (intra- and extracellular) was quantified by measuring the absorption at 405 nm of each sample (direct reading of the culture plates) against a standard range of melanin (melanin concentrations tested from 0.78 to 100 μg/mL). The background noise, measured in the wells without cells, was subtracted from the measured values so as only to take into account the effect connected with melanin production, without taking into account the possible interference connected with the presence of the compounds. The results were expressed as percentage of melanin relative to the control as well as percentage inhibition.\nThe operating conditions are the same as in Example 12."}, "interleukin-8 (IL-8)": {"tested_on": "interleukin-8 (IL-8)", "assay": "Release of IL-8 by NCTC-2544 keratinocytes stimulated by PMA", "type": "cell-based, human", "conditions": "NCTC-2544 stimulated by PMA", "description": "(§5) The effects of compound 1 were evaluated on two routes of inflammation, the “chemokine” route and the “prostaglandin” route, by measuring the release of interleukin-8 (IL-8) and of prostaglandin E2 (PGE2) by a human keratinocyte line NCTC-2544 stimulated by phorbol-myristate acetate (PMA)."}, "prostaglandin E2 (PGE2)": {"tested_on": "prostaglandin E2 (PGE2)", "assay": "Release of PGE2 by NCTC-2544 keratinocytes stimulated by PMA", "type": "cell-based, human", "conditions": "NCTC-2544 stimulated by PMA", "description": "as §5"}, "[3]": {"conditions": "10^−5 M, read-out: % Inhibition of control agonist response"}, "[4]": {"conditions": "10^−6 M, read-out: % Inhibition of control agonist response"}, "[5]": {"conditions": "10^−7 M, read-out: % Inhibition of control agonist response"}, "[6]": {"conditions": "Melanocyte, NDP-MSH stimulated B16, 72 h, Table 2, read-out: Standardized data Inhibition (%) (melanin)"}, "[7]": {"conditions": "Melanocyte, comparison with 2 reference molecules, Table 3, read-out: Standardized data Inhibition (%) (melanin)"}}, "note": "Like-named read-outs stand apart in the source and are kept apart here.", "data": [{"compound": "Oc1ccccc1CCOc1ccc(F)cc1", "note": "[Compound 1, 2-[2-(4-fluoro-phenoxy)-ethyl]-phenol]", "values": [{"measurement": "inhibition at 10 µM", "setting": "PPARγ (h); [3]", "value": 0, "unit": "%"}, {"measurement": "inhibition at 1 µM", "setting": "PPARγ (h); [4]", "value": 0, "unit": "%"}, {"measurement": "inhibition at 0.1 µM", "setting": "PPARγ (h); [5]", "value": 3, "unit": "%"}, {"measurement": "PPARγ antagonist activity (conclusion in words)", "setting": "PPARγ (h); 10^−7 to 10^−5 M", "value": "not an antagonist"}, {"measurement": "Expression of the stress protein HSPB1", "setting": "[1]", "value": "inhibition of expression"}, {"measurement": "inhibition at 10 µM", "setting": "PPARα (h); [3]", "value": 4, "unit": "%"}, {"measurement": "inhibition at 1 µM", "setting": "PPARα (h); [4]", "value": 0, "unit": "%"}, {"measurement": "inhibition at 0.1 µM", "setting": "PPARα (h); [5]", "value": 1, "unit": "%"}, {"measurement": "PPARα antagonist activity (conclusion in words)", "setting": "PPARα (h); 10^−7 to 10^−5 M", "value": "not an antagonist"}, {"measurement": "Depigmenting effect (inhibition of melanin synthesis), in words", "setting": "[2]; 30 μM and 100 μM", "value": "clear inhibitory effect"}, {"measurement": "Depigmenting effectiveness compared with the two reference products", "setting": "[2]; 30 μM and 100 μM, versus rucinol and [869743-37-3]", "value": "slightly more effective than the two reference products used"}, {"measurement": "inhibition at 10 µM", "setting": "[2]; Melanocyte, 10 μM, NDP-MSH stimulated B16, 72 h, Table 2, read-out: Standardized data Inhibition (%) (melanin)", "value": 0, "unit": "%"}, {"measurement": "inhibition at 30 µM", "setting": "[2]; [6]", "value": 93, "unit": "%"}, {"measurement": "inhibition at 30 µM", "setting": "[2]; [7]", "value": 98, "unit": "%"}, {"measurement": "inhibition at 100 µM", "setting": "[2]; [6]", "value": 112, "unit": "%"}, {"measurement": "inhibition at 100 µM", "setting": "[2]; [7]", "value": 124, "unit": "%"}, {"measurement": "Release of IL-8", "setting": "interleukin-8 (IL-8)", "value": "without altering"}, {"measurement": "Release of PGE2", "setting": "prostaglandin E2 (PGE2)", "value": "concentration-dependent inhibition"}]}]}
